Key:
[1] = test system: primary antibody production in response to SRBC; assay: Quantitative hemolysis of sheep red blood cells (QHS) assay; assay type: in vivo, Balb/c mice; settings: 7-day intraperitoneal injection
Description: Female Babl/c mice were immunized by intraperitoneal injection with 0.2 ml of 16.7% of SRBC on day 4. Vehicle, Dexamethasone and DZ2002 were administrated on each group (n=6) by intraperitoneal injection on 7 consecutive days of 1-7. On day 8, mice were sacrificed and made a mixed suspension of spleen cells of 2×10^6 cells/ml. 1 ml of cell suspension was incubated with 1 ml of 0.5% SRBC and 1 ml of 1:10 dilution of guinea pig complement for 1 h at 37° C., then centrifuged (3 min, 3000 g) and determined the supernatant hemolysis at 413 nm, according to Simpson et al., J. Immunol. Methods., 21(1-2):159-65. (1978) with some modifications. Each group was triplicated.

[2] = test system: C57BL/6 spleen cells stimulated by mitomycin-treated Balb/c spleen cells; assay: Mixed lymphocyte reaction (MLR) proliferation assay; assay type: cell-based, mouse; settings: 3-day culture
Description: Balb/c mouse spleen cells were prepared in 10^7 cells/ml suspension, cultured 2 h with 50 μg/ml of mitomycin. Then cells were washed and cultured together with fresh C57/B6 mice splenocytes equally in a final concentration of 1.0×10^6 cells/ml in the presence or absence of various concentrations of DZ2002. After 48 hour incubation, cells were pulsed with 0.5 μCi/well of [^3H]-thymidine and cultured for another 24 hours. The cells were then harvested onto glass fiber filters and the incorporated radioactivity was counted using a Beta Scintillator (MicroBeta Trilux, PerkinElmer Life Sciences).

[3] = test system: Mouse splenic lymphocytes; assay: MTT cytotoxicity assay of the splenic lymphocytes; assay type: cell-based; settings: 0.1-10 μmol/L, two days of culture
Description: Cytotoxicity was assessed with MTT assay. Mouse splenic lymphocytes were incubated in a 96-well plate at 9×10^4 cells/180 μl/well in a humidified CO2 incubator at 37° C. for 48 hours in the presence or absence of various concentrations of DZ2002. Fifteen (15) μl of 5 mg/ml of MTT was pulsed 4 h prior to end of the culture […], and then 80 μl solvent (10% SDS, 50% N,N-dimethy formamide, PH7.2) was added. Incubate for 7 h and read OD590 at a microplate reader (Bio-rad Model 550 Japan).

[4] = test system: TG induced peritoneal macrophages; assay: cytokine production from TG induced peritoneal macrophages (ELISA); assay type: cell-based, BALB/C mice; settings: IFN-γ and LPS 24 h, 0.1-10 μmol/L
Description: Peritoneal exudate cells were induced in BALB/C mice by an intraperitoneal injection of 0.5 ml of 3% TG. After 4 days, the peritoneal exudates cells were harvested by sterile lavage.
Murine peritoneal exudate cells (6.25×10^5) were cultured in 24-well plates in a volume of 1 ml/well for 2 hours. In adherent cells were washed by ice cold RPMI 1640 and adherent cells were culture in a volume of 2 ml/well in the presence of IFN-γ (2.5 ng/ml) and LPS (1 μg/ml) in the presence or absence of various concentrations of DZ2002. After 24 h, cell-free supernatant was collected and frozen at −20° C. The concentrations of IL-12p40, IL-12p70, IL-10 and TNF-α were determined by ELISA.
Cytokines produced by peritoneal macrophages were assessed following a 24-h incubation with IFN-γ at 25 U/ml and LPS at 1 μg/ml. Resident peritoneal cells produce low levers of cytokines except for some IL-10 with incubated with IFN-γ and LPS (data not shown). As for TG induced peritoneal macrophages, DZ2002 inhibited IL-12P40 and TNF-α release, but have no effect on IL-10 production in the dose of 0.1-10 μmol/L (FIG. 5).

[5] = test system: lupus-prone MRL-Fas^lpr mice; assay: survival of lupus-prone MRL-Fas lpr mice; assay type: in vivo, mouse; settings: 50 mg/kg/day i.p.
Description: MRL-Fas^lpr female mice were provided by The Jackson Laboratory (Bar Harbor, Me.). The mice were housed in specific pathogen-free (SPF) conditions with room temperature of 24±2° C., 12 hr light/dark cycle, and provided with sterile food and water ad libitum. Starting at approximately 6 weeks of age, MRL-Fas^lpr mice (n=11-13/group) were dosed i.p. every day with either DZ2002 (50 mg/kg/day) or with vehicle (0.4% DMSO/PBS) for ˜9 months and followed for survival. Mouse survival data were analyzed by the Kaplan-Meir method with comparison by the log-rank test; p<0.05 was considered to be significant.

SAH hydrolase = SAH hydrolase (Rattus norvegicus, UniProt P10760); settings: cited from earlier work
SAH hydrolase, sequence (P10760 whole entry): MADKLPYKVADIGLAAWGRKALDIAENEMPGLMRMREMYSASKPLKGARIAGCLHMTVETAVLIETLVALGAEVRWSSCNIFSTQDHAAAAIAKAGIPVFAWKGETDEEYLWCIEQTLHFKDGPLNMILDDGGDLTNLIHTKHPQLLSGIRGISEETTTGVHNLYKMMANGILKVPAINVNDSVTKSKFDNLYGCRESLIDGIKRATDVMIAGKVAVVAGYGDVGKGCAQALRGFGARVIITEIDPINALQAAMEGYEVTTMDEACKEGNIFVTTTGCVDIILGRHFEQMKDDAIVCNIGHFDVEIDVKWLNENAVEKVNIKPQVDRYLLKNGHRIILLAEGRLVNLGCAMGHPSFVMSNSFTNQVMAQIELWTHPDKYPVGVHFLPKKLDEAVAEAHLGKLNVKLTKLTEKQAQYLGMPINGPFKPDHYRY

[6] = target: intracellular AdoHcy hydrolase (Rattus norvegicus, UniProt P10760); settings: intracellular enzyme; cited from earlier work
intracellular AdoHcy hydrolase, sequence (P10760 whole entry): as above

## C[C@@H]1C[C@H]2[C@@H]3CCC4=CC(=O)C=C[C@]4(C)[C@@]3(F)[C@@H](O)C[C@]2(C)[C@@]1(O)C(=O)CO [Dethamethasone, reference compound]
[1]; 5 mg/kg
  inhibition of QHS: 38.1%

## COC(=O)C(O)CCn1cnc2c(N)ncnc21 (stereo not drawn) [DZ2002, Methyl 4-(Adenin-9-yl)-2-hydroxybutanoate]
[1]; 0.08 mg/kg
  inhibition of QHS: 24.5%
[1]; 2 mg/kg
  inhibition of QHS: 18.4%
[2]; 0.1 μmol/L
  suppression of MLR: 40.2%
[2]; 1 μmol/L
  suppression of MLR: 36.9%
[2]; 10 μmol/L
  suppression of MLR: 42.3%
[3]
  cytotoxicity to spleen cells (MTT, OD): no cytotoxicity
[4]
  IL-10 production: no effect
[5]
  age at which extension in survival was first observed: approximately 160 days of age

## Nc1ncnc2c1ncn2C[C@H](O)CO [(S)-DHPA, (S)-9-(2,3-dihydroxypropyl)adenine]
SAH hydrolase; isolated enzyme
  type of inhibition of isolated AdoHcy hydrolase: reversible inhibitor
SAH hydrolase; read-out: Ki value against SAH hydrolase
  Ki: 3.5 µM
[6]
  type of inhibition of intracellular AdoHcy hydrolase: irreversible inhibitor

Reference: patent US7868011B2 (General Atomics, priority 2003, dated 2011)
